This is an account of results in patent publication US10214533B2, “N-acyl-(3-substituted)-5,6,7,8-tetrahydro-[1,2,4]triazolo[4,3-a]pyrazines as selective NK-3 receptor antagonists, pharmaceutical composition, methods for use in NK-3 receptor-mediated disorders” (OGEDA SA, priority 2013, dated 2019).

The test system of one data set is plasma protein. Kind of data set: Determination of plasma protein binding (rapid equilibrium dialysis). Format: in vitro ADME. The settings on record: 4 hours at 37° C. The protocol: The determination of plasma protein binding (PPB) of a compound is enabled by equilibrium dialysis, an accepted and standard method for reliable estimation of the non-bound drug fraction in plasma. RED (Rapid Equilibrium Dialysis) device insert is made of two side-by-side chambers separated by an O-ring-sealed vertical cylinder of dialysis membrane (MWCO ˜8,000). […] After 4 hours incubation at 37° C. under shaking, an aliquot is removed from each chamber and analyzed by a LC-MS/MS procedure enables the determination of both free and bound drug.
The “free fraction” may be calculated as 100%−% rPPB (i.e. the complementary percentage of that disclosed in Table 4, corresponding to the drug concentration that is unbound and therefore available to engage biological target and elicit pharmacological activity).
In general terms: In equilibrium dialysis free small molecules cross a membrane that holds back macromolecules.

Another data set has as its system circulating LH levels. Kind of data set: Castrated male rat model, circulating luteinizing hormone (LH) levels, oral dosing. Type of data set: in vivo. The settings on record: castrated male SD rat, single oral dose less than or equal to 30 mg/kg, p<0.05. As to the method:
The effect of compounds of the invention to inhibit luteinizing hormone (LH) secretion is determined by the following biological studies. In humans and rodents, castration is well-precedented to permit heightened, persistent GnRH signaling and consequent elevation of circulating LH. Thus, a castrated rat model is used to provide a broad index for measurement of LH inhibition as a marker of test compound inhibition of the GnRH signaling pathway. Castrated adult male Sprague-Dawley (SD) rats (150-175 g) were purchased from Janvier (St Berthevin, France). All animals were housed 2 per cage in a temperature-controlled room (22±2° C.) and 50±5% relative humidity with a 12 hour/12 hour light/dark cycles (lights off at 6 h00 pm). The animals were allowed 3 weeks of postoperative recovery prior to study. Animals were handled on a daily basis. Standard diet and tap water were provided ad libitum. Animal cage litters were changed once a week. On the study day, animals were acclimated to the procedure room for a period of one hour prior to the initiation of the experiment. Compounds of the invention were formulated in 0.5% methyl cellulose. After basal sampling (TO) a single dose of compounds of the invention or vehicle was administrated orally to rats. […] Serum LH levels were determined using radioimmunoassay kit from RIAZEN—Rat LH, Zentech (Liège, Belgium). […]

In the case of `Cc1nsc(-c2nnc3n2CCN(C(=O)c2ccc(Cl)c(F)c2)C3)n1` [Compound 3, (4-chloro-3-fluorophenyl)(3-(3-methyl-1,2,4-thiadiazol-5-yl)-5,6-dihydro-[1,2,4]triazolo[4,3-a]pyrazin-7(8H)-yl)methanone], the “Exposure (% rPPB), bound drug fraction to the plasma protein” value (shortened to “Exposure (% rPPB), bound drug fraction”) in the data set with plasma protein was 54%. The same measure, in the same setting: under `Cc1nsc(-c2nnc3n2CCN(C(=O)c2ccc(Cl)cc2)C3)n1` [Compound 2, (4-chlorophenyl)(3-(3-methyl-1,2,4-thiadiazol-5-yl)-5,6-dihydro-[1,2,4]triazolo[4,3-a]pyrazin-7(8H)-yl)methanone] stands 49%.

As to `Cc1nsc(-c2nnc3n2CCN(C(=O)c2ccc(F)c(F)c2)C3)n1` [Compound 5, (3,4-difluorophenyl)(3-(3-methyl-1,2,4-thiadiazol-5-yl)-5,6-dihydro-[1,2,4]triazolo[4,3-a]pyrazin-7(8H)-yl)methanone], in the data set on plasma protein, the “Exposure (% rPPB), bound drug fraction” value stood at 28%.

On to `Cc1nsc(-c2nnc3n2CCN(C(=O)c2cc(F)c(F)c(F)c2)C3)n1` [Compound 6, (3-(3-methyl-1,2,4-thiadiazol-5-yl)-5,6-dihydro-[1,2,4]triazolo[4,3-a]pyrazin-7(8H)-yl)(3,4,5-trifluorophenyl)methanone], for which the “Exposure (% rPPB), bound drug fraction” value in the data set with plasma protein turned out to be 27%.

Turning to `Cc1nsc(-c2nnc3n2CCN(C(=O)c2ccc(F)cc2)C3)n1` [Compound 1, (4-fluorophenyl)(3-(3-methyl-1,2,4-thiadiazol-5-yl)-5,6-dihydro-[1,2,4]triazolo[4,3-a]pyrazin-7(8H)-yl)methanone], the “Suppression of circulating LH levels” value in the data set on circulating LH levels is “significantly suppressed circulating LH levels”. Regarding `Cc1nsc(-c2nnc3n2CCN(C(=O)c2ccc(F)c(F)c2F)C3)n1` [Compound 7, (3-(3-methyl-1,2,4-thiadiazol-5-yl)-5,6-dihydro-[1,2,4]triazolo[4,3-a]pyrazin-7(8H)-yl)(2,3,4-trifluorophenyl)methanone], the “Exposure (% rPPB), bound drug fraction” value with plasma protein was 25%.

`Cc1nsc(-c2nnc3n2CCN(C(=O)c2ccc(F)c(Cl)c2)C3)n1` [Compound 4, (3-chloro-4-fluorophenyl)(3-(3-methyl-1,2,4-thiadiazol-5-yl)-5,6-dihydro-[1,2,4]triazolo[4,3-a]pyrazin-7(8H)-yl)methanone]: in the data set on plasma protein, the “Exposure (% rPPB), bound drug fraction” value was determined as 52%.
